Test results from ChEMBL document CHEMBL4152340, “Targeting the MDM2-p53 protein-protein interaction with prenylchalcones: Synthesis of a small library and evaluation of potential antitumor activity” (Eur J Med Chem, 2018).
Calls of active or inactive are those of the source. No cut-off for these calls is given here.

What was measured:
HCT-116 [1] = experiment: Antiproliferative activity against human HCT116 cells after 48 hrs by SRB assay; type: functional, cell-based; conditions: HCT-116, 48 h
[2] = target: T1, Tumour suppressor p53/oncoprotein Mdm2 (Homo sapiens) (UniProt P04637+Q00987); experiment: Inhibition of human MDM2-p53 interaction in Saccharomyces cerevisiae assessed as p53 induced cell growth arrest at 1 to 50 uM after 42 hrs by Yeast-based assay; type: protein assay
Saccharomyces cerevisiae [3] = experiment: Growth inhibition of Saccharomyces cerevisiae expressing MDM2 at 1 to 50 uM after 42 hrs by Yeast-based assay; type: organism-based; conditions: in vivo
Saccharomyces cerevisiae [4] = experiment: Growth inhibition of Saccharomyces cerevisiae expressing empty vector at 1 to 50 uM after 42 hrs by Yeast-based assay; type: organism-based; conditions: in vivo
Saccharomyces cerevisiae [5] = experiment: Growth inhibition of Saccharomyces cerevisiae expressing p53 at 1 to 50 uM after 42 hrs by Yeast-based assay; type: organism-based; conditions: in vivo
HCT-116 [6] = experiment: Induction of apoptosis in human HCT116 cells at 4.2 uM after 48 hrs by annexin V/FITC-propidium iodide staining-based flow cytometric method; type: functional, cell-based
[7] = Selectivity ratio of IC50 for human HFF to IC50 for human A375 cells; type: toxicity; conditions: HFF cells versus A375 cells, read-out: Ratio IC50
[8] = target: T1, Tumour suppressor p53/oncoprotein Mdm2 (Homo sapiens); experiment: Inhibition of MDM2-p53 interaction in human HCT116 cells assessed as p53 activation by measuring increase in MDM2 expression at 4.2 uM after 48 hrs by Western blot analysis; type: cell-based
[9] = Selectivity ratio of IC50 for human HFF to IC50 for human HCT116 cells; type: toxicity; conditions: HFF cells versus HCT116 cells, read-out: Ratio IC50
HepG2 = experiment: Antiproliferative activity against human HepG2 cells after 48 hrs by SRB assay; type: functional, cell-based; conditions: HepG2, 48 h
[10] = target: T1, Tumour suppressor p53/oncoprotein Mdm2 (Homo sapiens); experiment: Inhibition of MDM2-p53 interaction in human HCT116 cells assessed as p53 activation by measuring increase in p21 level at 4.2 uM after 48 hrs by Western blot analysis; type: cell-based
[11] = target: T1, Tumour suppressor p53/oncoprotein Mdm2 (Homo sapiens); experiment: Inhibition of MDM2-p53 interaction in human HCT116 cells assessed as p53 activation by measuring increase in GADD45 level at 4.2 uM after 48 hrs by Western blot analysis; type: cell-based
[12] = Selectivity ratio of IC50 for human HFF to IC50 for human MCF7 cells; type: toxicity; conditions: HFF cells versus MCF7 cells, read-out: Ratio IC50
[13] = target: T1, Tumour suppressor p53/oncoprotein Mdm2 (Homo sapiens); experiment: Inhibition of MDM2-p53 interaction in human HCT116 cells assessed as p53 activation by measuring increase in PUMA level at 4.2 uM after 48 hrs by Western blot analysis; type: cell-based
[14] = Selectivity ratio of IC50 for human HFF to IC50 for human HepG2 cells; type: toxicity; conditions: HFF cells versus HepG2 cells, read-out: Ratio IC50
[15] = target: T1, Tumour suppressor p53/oncoprotein Mdm2 (Homo sapiens); experiment: Inhibition of MDM2-p53 interaction in human HCT116 cells assessed as p53 activation by measuring decrease in Bcl-2 level at 4.2 uM after 48 hrs by Western blot analysis; type: cell-based
HCT-116 [16] = experiment: Induction of mitochondrial ROS generation in human HCT116 cells at 4.2 uM after 48 hrs by MitoSOX dye-based flow cytometric analysis; type: functional, cell-based
A-375 = experiment: Antiproliferative activity against human A375 cells after 48 hrs by SRB assay; type: functional, cell-based; conditions: A-375, 48 h
[17] = target: T1, Tumour suppressor p53/oncoprotein Mdm2 (Homo sapiens); experiment: Inhibition of MDM2-p53 interaction in human HCT116 cells assessed as p53 activation by measuring increase in cleaved-PARP level at 4.2 uM after 48 hrs by Western blot analysis; type: cell-based
MCF7 = experiment: Antiproliferative activity against human MCF7 cells after 48 hrs by SRB assay; type: functional, cell-based; conditions: MCF7, 48 h
HCT-116 [18] = experiment: Anticlonogenic activity against human HCT116 cells after 11 days by crystal violet staining based assay; type: functional, cell-based; conditions: HCT-116, 264 h
HCT-116 [19] = experiment: Cell cycle arrest in human HCT116 cells assessed as accumulation at G2/M phase at 4.2 uM after 48 hrs by propidium iodide staining-based flow cytometric analysis; type: functional
Saccharomyces cerevisiae [20] = experiment: Growth inhibition of Saccharomyces cerevisiae expressing p53 at 10 uM after 42 hrs by Yeast-based assay; type: organism-based; conditions: in vivo
Saccharomyces cerevisiae [21] = experiment: Growth inhibition of Saccharomyces cerevisiae expressing MDM2 at 10 uM after 42 hrs by Yeast-based assay; type: organism-based; conditions: in vivo
Saccharomyces cerevisiae [22] = experiment: Growth inhibition of Saccharomyces cerevisiae expressing empty vector at 10 uM after 42 hrs by Yeast-based assay; type: organism-based; conditions: in vivo

T1 sequence (P04637 whole entry, looked up): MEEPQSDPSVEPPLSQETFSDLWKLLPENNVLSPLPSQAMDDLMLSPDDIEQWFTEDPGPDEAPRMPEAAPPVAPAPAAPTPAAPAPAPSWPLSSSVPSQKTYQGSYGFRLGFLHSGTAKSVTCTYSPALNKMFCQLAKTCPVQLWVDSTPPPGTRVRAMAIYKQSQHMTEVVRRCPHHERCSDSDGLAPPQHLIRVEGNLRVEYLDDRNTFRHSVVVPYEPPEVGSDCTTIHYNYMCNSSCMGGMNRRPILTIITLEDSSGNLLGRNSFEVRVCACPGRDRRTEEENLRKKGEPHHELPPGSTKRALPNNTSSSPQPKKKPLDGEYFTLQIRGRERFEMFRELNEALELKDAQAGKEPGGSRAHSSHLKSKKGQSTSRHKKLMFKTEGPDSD
T1 sequence (Q00987 whole entry, looked up): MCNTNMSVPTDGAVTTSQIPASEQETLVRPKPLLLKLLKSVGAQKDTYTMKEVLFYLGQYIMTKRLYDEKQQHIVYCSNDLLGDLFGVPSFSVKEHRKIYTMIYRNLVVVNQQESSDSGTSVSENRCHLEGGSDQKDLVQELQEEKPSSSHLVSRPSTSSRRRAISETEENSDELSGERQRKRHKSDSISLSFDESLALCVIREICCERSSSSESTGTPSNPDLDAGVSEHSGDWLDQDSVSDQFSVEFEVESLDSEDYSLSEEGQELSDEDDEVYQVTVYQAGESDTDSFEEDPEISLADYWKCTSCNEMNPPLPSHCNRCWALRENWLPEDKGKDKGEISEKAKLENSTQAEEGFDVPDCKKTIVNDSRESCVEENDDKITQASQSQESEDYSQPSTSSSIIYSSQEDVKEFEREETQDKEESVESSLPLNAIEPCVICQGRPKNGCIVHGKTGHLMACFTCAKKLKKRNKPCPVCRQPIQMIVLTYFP

COc1cc(OC)c(C(=O)/C=C/c2cccc(OC)c2OC)c(OCC=C(C)C)c1
IC50 (HCT-116 [1]): 11.7 µM
inhibition [2]: Active
growth inhibition (GI) (Saccharomyces cerevisiae [3]): Non-Toxic
growth inhibition (GI) (Saccharomyces cerevisiae [4]): Non-Toxic
growth inhibition (GI) (Saccharomyces cerevisiae [5]): Non-Toxic

COc1cc(/C=C/C(=O)c2c(OC)cc(OC)cc2OCC=C(C)C)cc(OC)c1
IC50 (HCT-116 [1]): 3.5 µM

COc1cc(O)c(C(=O)/C=C/c2cccc(Cl)c2Cl)c(OC)c1
IC50 (HCT-116 [1]): 2.7 µM

COc1cc(OC)c(C(=O)/C=C/c2cccc(Cl)c2Cl)c(OCC=C(C)C)c1
IC50 (HCT-116 [1]): 1.9 µM

COc1cc(OC)c(C(=O)/C=C/c2cc(Cl)cc(Cl)c2)c(OCC=C(C)C)c1
IC50 (HCT-116 [1]): 24.5 µM

COc1cc(O)c(C(=O)/C=C/c2ccc(OC)c(OC)c2)c(OC)c1
IC50 (HCT-116 [1]): 27.6 µM

COc1ccc(/C=C/C(=O)c2c(O)cc(OC)cc2OC)cc1 [FLAVOKAWAIN A]
IC50 (HCT-116 [1]): 10.6 µM
inhibition [2]: Active
growth inhibition (GI) (Saccharomyces cerevisiae [3]): Non-Toxic
growth inhibition (GI) (Saccharomyces cerevisiae [4]): Non-Toxic
growth inhibition (GI) (Saccharomyces cerevisiae [5]): Non-Toxic

COc1cc(OC)c(C(=O)/C=C/c2ccc(OC)c(OC)c2)c(OCC=C(C)C)c1
IC50 (HCT-116 [1]): 5.7 µM

COc1cccc(/C=C/C(=O)c2c(O)cc(OC)cc2OC)c1
IC50 (HCT-116 [1]): 3.1 µM

COc1cc(O)c(C(=O)/C=C/c2ccc(Br)cc2)c(OC)c1
IC50 (HCT-116 [1]): 14 µM

COc1ccc(/C=C/C(=O)c2c(OC)cc(OC)cc2OCC=C(C)C)cc1
IC50 (HCT-116 [1]): 7.6 µM

COc1cc(O)c(C(=O)/C=C/c2cccc(OC)c2OC)c(OC)c1
IC50 (HCT-116 [1]): 3.5 µM

COc1cccc(/C=C/C(=O)c2c(OC)cc(OC)cc2OCC=C(C)C)c1
IC50 (HCT-116 [1]): 7.7 µM

COc1cc(O)c(C(=O)/C=C/c2cccc(OC)c2OC)c(OC)c1CC=C(C)C
IC50 (HCT-116 [1]): 29.5 µM
inhibition [2]: Active
growth inhibition (GI) (Saccharomyces cerevisiae [3]): Non-Toxic
growth inhibition (GI) (Saccharomyces cerevisiae [4]): Non-Toxic
growth inhibition (GI) (Saccharomyces cerevisiae [5]): Non-Toxic

COc1cc(O)c(C(=O)/C=C/c2cc(Cl)cc(Cl)c2)c(OC)c1
IC50 (HCT-116 [1]): 1.9 µM

COc1cc(OC)c(C(=O)/C=C/c2ccc(F)cc2)c(OCC=C(C)C)c1
IC50 (HCT-116 [1]): 3.2 µM

COc1cc(OC)c(C(=O)/C=C/c2ccc(Br)cc2)c(OCC=C(C)C)c1
Activity (HCT-116 [6]): Active
selectivity ratio [7]: 3
inhibition [8]: Active
selectivity ratio [9]: 3
IC50 (HCT-116 [1]): 2.1 µM
IC50 (HepG2): 3.6 µM
inhibition [10]: Active
inhibition [11]: Active
selectivity ratio [12]: 3
inhibition [13]: Active
selectivity ratio [14]: 3
inhibition [15]: Active
Activity (HCT-116 [16]): Active
IC50 (A-375): 1.6 µM
inhibition [17]: Active
inhibition [2]: Active
IC50 (MCF7): 2.8 µM
growth inhibition (GI) (Saccharomyces cerevisiae [3]): Non-Toxic
IC50 (HCT-116 [18]): 0.17 µM
growth inhibition (GI) (Saccharomyces cerevisiae [4]): Non-Toxic
Activity (HCT-116 [19]): Active
growth inhibition (GI) (Saccharomyces cerevisiae [5]): Non-Toxic

COc1ccc(C2=N[C@@H](c3ccc(Cl)cc3)[C@@H](c3ccc(Cl)cc3)N2C(=O)N2CCNC(=O)C2)c(OC(C)C)c1 [NUTLIN-3]
growth inhibition (GI) (Saccharomyces cerevisiae [20]): Non-Toxic
growth inhibition (GI) (Saccharomyces cerevisiae [21]): Non-Toxic
growth inhibition (GI) (Saccharomyces cerevisiae [22]): Non-Toxic

COc1cc(O)c(C(=O)/C=C/c2ccc(F)cc2)c(OC)c1
IC50 (HCT-116 [1]): 4.4 µM

COc1ccc(/C=C/C(=O)c2c(OCC=C(C)C)cc(OC)c(CC=C(C)C)c2OC)cc1OC
IC50 (HCT-116 [1]): 7.4 µM

COc1cc(OCC=C(C)C)c(C(=O)/C=C/c2cc(OC)c(OC)c(OC)c2)c(OC)c1CC=C(C)C
IC50 (HCT-116 [1]): 4.2 µM

COc1cccc(/C=C/C(=O)c2c(O)c(CC=C(C)C)c(OC)c(CC=C(C)C)c2OC)c1OC
IC50 (HCT-116 [1]): 15.3 µM

COc1cc(OC)c(C(=O)/C=C/c2cc(OC)c(OC)c(OC)c2)c(OCC=C(C)C)c1CC=C(C)C
IC50 (HCT-116 [1]): 2.9 µM

COc1ccc(/C=C/C(=O)c2c(O)cc(OC)cc2OC)c(OC)c1
IC50 (HCT-116 [1]): 50 µM
inhibition [2]: Active
growth inhibition (GI) (Saccharomyces cerevisiae [3]): Non-Toxic
growth inhibition (GI) (Saccharomyces cerevisiae [4]): Non-Toxic
growth inhibition (GI) (Saccharomyces cerevisiae [5]): Non-Toxic
